“Also recorded” adds a separate entry of the source. Where a SMILES comes first, the peptide text is derived from it. Bridges are numbered along the chain shown (N, C = ends).
Key:
ACE-2 [1] = biological target: T1, ACE-2 (Homo sapiens, UniProt Q9BYF1); assay: Fluorometric ACE-2 inhibition assay with peptide M-2195 as substrate; assay type: biochemical; design: nucleotides corresponding to the extracellular domain (M1-S740); FLAG; made in house; host or cells: Sf9 insect cells, recombinant baculovirus (transfer vector pA2); enzyme purified from conditioned media; details: inhibition of ACE-2 activity, M-2195 substrate; class by % inhibition at ~100 μM and IC50
Description: Substrate stock (10 μL of 10× concentration) was added to each well to be tested in blocks of three vertically down the plate. The reaction was monitored on a Spectrafluor Plus (Tecan) at an excitation wavelength of 340 nm and an emission wavelength of 400 nm (+/−35 nm) every 30 seconds for a time period of 10 minutes.
ACE-2 cleaves off the C-terminal lysine from the peptide with a concomitant increase in fluorescence signal.
The assays were performed in 96-well clear-bottom black plates (Costar, 07-200-590). In each well, 0.45 μg (5 pmoles) of ACE-2 is added to 90 μL of an assay solution containing 100 mM TRIS at pH 7.4, 0.1% Tween, and 0.4% DMSO. Substrate stock at 10 μL of 10× concentration is added to each well (for example, 10 μL of 1 mM stock for a final 100 μM concentration). The reaction was monitored on a Spectrafluor Plus (Tecan) at an excitation wavelength of 340 nm and an emission wavelength of 400 nm (+/−35 nm) every 30 seconds up to 10 minutes. All samples were measured in triplicate. […]
Target sequence in this assay (Q9BYF1 18-740): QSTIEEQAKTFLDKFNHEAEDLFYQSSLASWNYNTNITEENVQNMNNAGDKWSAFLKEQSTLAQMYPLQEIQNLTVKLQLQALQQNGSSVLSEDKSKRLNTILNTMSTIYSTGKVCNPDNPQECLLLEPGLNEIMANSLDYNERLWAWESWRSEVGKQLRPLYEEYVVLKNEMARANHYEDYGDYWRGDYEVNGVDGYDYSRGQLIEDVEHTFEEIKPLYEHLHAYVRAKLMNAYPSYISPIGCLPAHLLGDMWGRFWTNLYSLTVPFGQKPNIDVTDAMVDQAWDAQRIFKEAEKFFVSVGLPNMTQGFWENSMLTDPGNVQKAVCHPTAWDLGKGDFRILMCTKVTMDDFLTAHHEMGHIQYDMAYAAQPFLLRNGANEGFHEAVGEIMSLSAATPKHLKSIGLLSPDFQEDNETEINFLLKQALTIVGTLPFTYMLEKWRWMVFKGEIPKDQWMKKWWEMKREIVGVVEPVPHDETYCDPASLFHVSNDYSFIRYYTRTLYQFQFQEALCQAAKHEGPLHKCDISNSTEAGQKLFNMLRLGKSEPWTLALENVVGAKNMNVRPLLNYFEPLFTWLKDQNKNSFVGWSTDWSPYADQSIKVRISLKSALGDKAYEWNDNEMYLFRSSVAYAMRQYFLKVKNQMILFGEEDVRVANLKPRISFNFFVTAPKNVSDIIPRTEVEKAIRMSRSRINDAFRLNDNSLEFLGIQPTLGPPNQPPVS

ACE-2 [2] = biological target: T1, ACE-2; details: cited from earlier work
Target sequence in this assay (Q9BYF1 18-805): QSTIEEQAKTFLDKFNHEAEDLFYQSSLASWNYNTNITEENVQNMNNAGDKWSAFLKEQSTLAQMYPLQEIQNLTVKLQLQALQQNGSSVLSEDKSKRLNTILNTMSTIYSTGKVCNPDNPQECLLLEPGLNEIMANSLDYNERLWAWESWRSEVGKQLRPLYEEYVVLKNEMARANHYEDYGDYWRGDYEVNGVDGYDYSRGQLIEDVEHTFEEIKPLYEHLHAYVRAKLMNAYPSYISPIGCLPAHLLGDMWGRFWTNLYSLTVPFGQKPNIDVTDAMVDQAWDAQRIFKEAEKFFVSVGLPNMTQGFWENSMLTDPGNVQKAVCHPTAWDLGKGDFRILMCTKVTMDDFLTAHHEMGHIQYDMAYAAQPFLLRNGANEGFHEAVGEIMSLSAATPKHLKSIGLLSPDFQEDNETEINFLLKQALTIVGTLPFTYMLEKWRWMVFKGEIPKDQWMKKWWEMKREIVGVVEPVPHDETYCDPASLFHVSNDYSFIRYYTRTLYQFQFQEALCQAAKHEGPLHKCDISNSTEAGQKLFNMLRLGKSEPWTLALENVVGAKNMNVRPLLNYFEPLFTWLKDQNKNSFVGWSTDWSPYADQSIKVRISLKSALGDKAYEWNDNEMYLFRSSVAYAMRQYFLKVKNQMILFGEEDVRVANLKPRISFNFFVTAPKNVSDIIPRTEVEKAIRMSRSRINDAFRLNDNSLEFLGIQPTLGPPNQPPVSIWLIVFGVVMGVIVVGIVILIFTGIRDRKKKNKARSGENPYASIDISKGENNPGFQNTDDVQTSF

[3] = system: awake, free-ranging Sprague-Dawley rats; assay: Arterial pressure in awake, free-ranging Sprague-Dawley rats, intravenous infusion; assay type: in vivo; details: awake rat
Description: FIG. 2. The effect of A1-9 on (A) mean arterial pressure ±SEM in the awake and freely-ranging rat (n=6 rats). Average mean arterial and pulse pressure as well as heart rate data were derived from the last 5 min of a 20 min continuous intravenous infusion period. * indicates a significant difference compared to vehicle-treated rats following analysis of variance and Dunnett's post-hoc test. A1-9 or angiotensin II (AII) continuous infusion doses are in μg/kg/min.
FIG. 3. The effect of A1-9 on angiotensin II-mediated pressor responses in normotensive awake male rats. Data are reported as average mean arterial pressure ±SEM (n=6 rats).
To investigate the effects of A1-9 on arterial pressure, A1-9 was administered to awake, free-ranging Sprague-Dawley rats via indwelling intravenous and arterial catheters. Intravenous infusion of A1-9 (1-3 μg/kg/min) in the awake rat produced a dose-dependent tonic increase in mean arterial pressure to a maximum of approximately 30 mmHg (FIG. 2). […] These responses seen with A1-9 were similar in magnitude to those induced by angiotensin II.
To examine any interactions induced by coadministration of A1-9 and angiotensin II, arterial pressure was monitored in the awake rat after they received either A1-9 (1 μg/kg/min) or saline coinfused with angiotensin II (1-100 ng/kg/min).

[4] = system: isolated aortic vascular rings; assay: Developed isometric tension of isolated aortic vascular rings; design: species or system rat
Source text: FIG. 1. Synergistic effects of Angiotensin 1-9 (A1-9) on angiotensin II (AII)-induced vasoconstriction, representative experiment (experiment 9 from Table 3). Data are presented as the mean percentage of the maximal contractile response as defined by full KCl depolarization following treatment with angiotensin peptides for four separate rings used to determine average response at each concentration. Generated tension was plotted against peptide concentration and the resulting concentration-response curves were subjected to regression analysis to determine whether the effects of the combination of A1-9 and angiotensin II produced additivity or synergy.
The effects of graded doses of A1-9 (Fields et al., Peptide Research 4: 95-101 (1991)) or A1-10 (substrate control) alone or in combination (Tallarida, Drug Synergism and Dose-Effect Data Analysis, Chapman and Hall/CRC, New York (2000), Tallarida et al., Life Science 61: PL417-425 (1997)) with angiotensin II were examined on isolated aortic vascular rings developed tension in response to vasoactive substances. Aortas were removed from mature male Sprague-Dawley rats, cleared of connective tissue, and cut into 1 mm rings. Rings were mounted to an isometric force transducer and placed in Krebs-Henseleit solution bubbled with 95% O2/5% CO2 at 37° C. Rings were exposed to a 2 g preload, relaxed and then exposed to various concentrations of angiotensin peptides alone or in combination. Following angiotensin peptide dosing, rings were fully constricted with KCl to determine the maximum degree of vasoconstriction.

CC(=O)NCC(=O)N[C@@H](CC(=O)O)C(=O)N[C@@H](Cc1ccccc1)C(=O)N[C@@H](CO)C(=O)N1CCC[C@H]1C(=O)N[C@H]1CSSC[C@@H](C(=O)N2CCC[C@H]2C(=O)N[C@@H](CO)C(=O)NCC(=O)N[C@@H](CC(=O)O)C(=O)N2CCC[C@H]2C(=O)N[C@@H](CCC(=O)O)C(=O)NCC(=O)NCC(=O)NCC(N)=O)NC(=O)[C@H](C(C)C)NC(=O)[C@H](Cc2c[nH]c3ccccc23)NC(=O)[C@H](Cc2c[nH]c3ccccc23)NC(=O)[C@@H]2CCCN2C(=O)[C@H](CO)NC(=O)[C@H](Cc2c[nH]cn2)NC(=O)[C@H](CCCNC(=N)N)NC(=O)[C@H](CC(C)C)NC(=O)[C@H](C)NC(=O)[C@H](CCCCN)NC1=O [DX-602] (Ac-GDFSPCKALRHSPWWVCPSGDPEGGG-NH2; disulfide 6-17)
Inhibition (ACE-2 [1]): ++++ (signifies very strong inhibition (˜100% inhibition at 100 μM; with IC50 0.15 μM))

C[C@H](CS)C(=O)N1CCC[C@H]1C(=O)O [captopril]
blockade of ACE-2 formation of A1-9 from angiotensin I (ACE-2 [2]): not blocked

angiotensin 1-9 (DRVYIHPFH; Angiotensin 1-9; UniProt P01019 25-33, looked up) [A1-9, nonapeptide formed by removal of the C-terminal leucine from angiotensin I]
effect on pressor response elicited by angiotensin II ([3]; coinfused with angiotensin II (1-100 ng/kg/min), A1-9 at 1 μg/kg/min): potentiated the pressor response elicted by angiotensin II in an additive fashion | increase in mean arterial pressure, maximum ([3]; intravenous infusion 1-3 μg/kg/min): approximately 30 mmHg | potentiation of angiotensin II-mediated vasoconstriction ([4]; combined with angiotensin II, rat aortic rings): superadditive or synergistic interaction | maximum tension developed / effect on vascular tone, peptide alone ([4]; rat aortic rings): no effect on vascular tone; also recorded: minimal | factor by which relative potency of angiotensin II was increased beyond simple addition ([4]; shift of angiotensin II dose-effect curve by A1-9, rat aortic rings, FIG. 1): 11.6 (95% confidence limits of 3.02-44.7)

— US20030091557A1, “Methods and compositions for modulating ACE-2 activity” (priority 2001, published 2003)
